We go through 37 compounds from ChEMBL document CHEMBL1201862, “PubChem BioAssay data set” (2004).

One test relates to INS1. As to the kind of experiment: INS-1E survival protection against cytokine death – cell-based, luminescence, retest, dose response (AID 449756).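 Note: cell death triggered by IL-1 beta plus TNF-alpha plus IFN-gamma mixture; protective hits raise ATP signal compared with cytokine alone wells.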 Type of test: functional. The settings on record: Rattus norvegicus.
Test [1] deals with T1, Corticotropin-releasing factor receptor 2/Corticotropin-releasing factor-binding protein (Homo sapiens, UniProt P24387+Q13324).
T1 sequence (Q13324 whole entry): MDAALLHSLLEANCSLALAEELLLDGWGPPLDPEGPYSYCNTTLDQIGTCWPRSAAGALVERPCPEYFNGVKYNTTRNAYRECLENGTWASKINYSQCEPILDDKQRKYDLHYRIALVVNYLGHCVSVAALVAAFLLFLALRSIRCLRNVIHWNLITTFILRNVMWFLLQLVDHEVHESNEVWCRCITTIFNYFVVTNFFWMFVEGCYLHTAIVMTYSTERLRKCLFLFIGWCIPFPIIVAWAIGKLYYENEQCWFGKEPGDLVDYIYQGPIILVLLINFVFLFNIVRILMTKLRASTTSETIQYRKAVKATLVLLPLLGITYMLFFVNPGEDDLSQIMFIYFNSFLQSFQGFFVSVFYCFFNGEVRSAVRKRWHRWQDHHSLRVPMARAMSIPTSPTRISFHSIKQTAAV
T1 sequence (P24387 whole entry): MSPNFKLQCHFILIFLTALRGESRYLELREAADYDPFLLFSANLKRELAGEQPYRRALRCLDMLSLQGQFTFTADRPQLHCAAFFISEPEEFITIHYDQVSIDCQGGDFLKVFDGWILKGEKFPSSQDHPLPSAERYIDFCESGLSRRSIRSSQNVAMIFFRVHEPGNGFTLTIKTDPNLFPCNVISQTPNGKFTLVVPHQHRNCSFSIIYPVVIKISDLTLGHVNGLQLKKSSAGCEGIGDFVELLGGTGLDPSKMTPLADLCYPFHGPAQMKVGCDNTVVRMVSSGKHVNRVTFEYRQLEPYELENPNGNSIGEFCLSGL
As to the kind of experiment: activators of CRF receptor 2 with binding protein – uHTS hits, confirmation (AID 602473). Type of test: functional. The following applies: read-out: EC50_Mean.

Test [2] addresses T1, Corticotropin-releasing factor receptor 2/Corticotropin-releasing factor-binding protein. In words: Dose Response confirmation of uHTS hits for small molecule antagonists of the CRF-binding protein and CRF-R2 receptor complex. The following applies: read-out: IC50_Mean. Type of test: functional.
Test [3] is described as follows: NIH3T3 cell viability loss – ATP luminescence, mouse fibroblasts, counter-screen, dose response (AID 2010).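 Note: cells exposed to compound for about 90 hours before reading.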 In kind it is functional, cell-based. A general note: A counterscreen serves to expose hits that act by an unwanted route or on another target.
Test [4] is described as follows: Trypanosoma cruzi growth suppression in host cells – NIH3T3 host cells, beta-gal luminescence, confirmation (AID 2044).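 Note: intracellular parasites grown in NIH/3T3 mouse fibroblasts as host cells; luminescent beta-galactosidase reporter signal from transgenic T. cruzi replicating inside host cells; inhibitors lower the luminescence signal.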 In kind it is functional, cell-based.
Test [5] can be described thus: viability of uninfected HEp-2 cells – cell-based, HTS, cytotoxicity control for RSV inhibitor project, dose response (AID 2410). Type of test: functional. The settings on record: human respiratory syncytial virus.
Test [6] in a line: alpha-synuclein stem-loop luciferase translation blockers – H4 neuroglioma cells, luminescence, confirmation (AID 1988). In kind it is functional, cell-based.
Test [7] can be described thus: luciferase reporter signal suppression in cells – H4 neuroglioma cells, luminescence, dose response (AID 1990). Type of test: functional, cell-based. (In general: A reporter such as luciferase makes a cellular process visible.)
The nature of test [8]: Luminescence Cell-Based Dose Response HTS to Identify Inhibitors of 5'UTR Stem-Loop Driven Prion Protein mRNA Translation in H4 Neuroglioblastoma Cells. [Related pubchem assays: 1827 (Project Summary), 1813 (Primary HTS)]. Type of test: functional.
The subject of the next test is Streptococcus. In words: GAS UMAA2166 growth inhibition – luminescence, BacTiterGlo, counter-screen for streptokinase expression inhibitor project, dose response (AID 1915).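 Note: potency for reduction of bacterial viability or growth.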 In kind it is functional, organism-based.
Another test deals with T2, Streptokinase A (Streptococcus pyogenes serotype M1, UniProt P10520).
T2 sequence (P10520 whole entry): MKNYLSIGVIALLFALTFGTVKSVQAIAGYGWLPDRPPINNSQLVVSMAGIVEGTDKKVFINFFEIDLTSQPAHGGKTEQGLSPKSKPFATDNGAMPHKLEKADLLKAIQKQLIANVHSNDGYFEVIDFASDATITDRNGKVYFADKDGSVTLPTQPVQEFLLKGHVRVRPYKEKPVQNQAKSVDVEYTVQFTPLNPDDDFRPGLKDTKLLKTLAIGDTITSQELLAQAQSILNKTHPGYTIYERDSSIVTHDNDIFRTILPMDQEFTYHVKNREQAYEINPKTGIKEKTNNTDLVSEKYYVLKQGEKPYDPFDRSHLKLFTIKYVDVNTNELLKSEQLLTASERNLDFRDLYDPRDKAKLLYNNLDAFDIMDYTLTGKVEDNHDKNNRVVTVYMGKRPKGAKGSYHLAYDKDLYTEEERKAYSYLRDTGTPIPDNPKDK
In words: viability-normalized secreted streptokinase activity reduction – plasminogen activation absorbance, OD405, dose response (AID 1914).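 Note: secreted streptokinase activity via plasminogen activation per viability signal from cell pellet.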 Type of test: functional, Streptococcus pyogenes M1 GAS.

Test [9] deals with Streptococcus sp. 'group A'. In words: Streptococcus pyogenes SK(-)GAS viability under kanamycin – luminescence, BacTiterGlo, confirmation, counter-screen for streptokinase expression inhibitor project, dose response (AID 1900). In kind it is functional, organism-based.
In test [10] the target is T3, Heat shock factor protein 1 (Mus musculus, UniProt P38532).
T3 sequence (P38532 whole entry): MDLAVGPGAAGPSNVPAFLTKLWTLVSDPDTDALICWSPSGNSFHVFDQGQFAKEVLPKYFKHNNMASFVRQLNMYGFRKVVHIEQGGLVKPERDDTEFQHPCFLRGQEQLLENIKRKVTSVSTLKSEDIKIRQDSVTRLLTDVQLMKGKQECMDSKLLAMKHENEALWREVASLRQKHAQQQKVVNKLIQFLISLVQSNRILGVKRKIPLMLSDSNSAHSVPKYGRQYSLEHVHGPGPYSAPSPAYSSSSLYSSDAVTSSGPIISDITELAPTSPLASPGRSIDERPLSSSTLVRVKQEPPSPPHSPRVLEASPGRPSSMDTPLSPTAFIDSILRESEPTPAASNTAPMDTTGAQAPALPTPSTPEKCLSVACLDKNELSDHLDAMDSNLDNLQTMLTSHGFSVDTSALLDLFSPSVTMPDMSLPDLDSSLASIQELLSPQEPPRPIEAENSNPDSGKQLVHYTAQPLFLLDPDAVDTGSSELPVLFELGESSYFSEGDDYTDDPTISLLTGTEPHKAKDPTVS
In words: decrease of HSF1-responsive luciferase luminescence – cell-based, NIH3T3, dose retest, confirmation (AID 2382).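 Note: NIH3T3 fibroblasts with HSF1-driven luciferase reporter stressed by proteasome inhibitor MG132; luminescence from HSF1-driven luciferase expression after 8 hours of MG132 stress.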 In kind it is functional.

Test [11] can be described thus: Luminescence Cell-Based Dose Retest to Confirm Inhibitors of Cancer Stem Cells. [Related pubchem assays (depositor defined):AID2717, AID2721]. Type of test: functional. The settings on record: Homo sapiens.

The source made the active and inactive calls. Cut-off read from the data, not from the text of the source, for most assays here: actives have a measured EC50 and inactives only a lower limit.

Take `CCNC(=O)Nc1cc(S(=O)(=O)Nc2ccc(OC)cc2)ccc1N1CCOCC1`: the AC50 in the test with INS1 is 3.3 µM (active).
`COc1cc(OC)cc(C(=O)NCC(=O)OCc2cc(=O)oc3cc(OC)ccc23)c1`: in test [1], the EC50 was > 53 µM (inactive). In addition, the IC50 in test [2] was > 47.1 µM (inactive).
`Cc1nnc(C)c2c(C)n(C(c3ccccc3)c3ccccc3)c(C)c12`: the EC50 in test [3] is > 60 µM (not active); in test [4], 1.46 µM (active). In test [5], the CC50 is 18.3 µM (active).
Turning to `S=C(NCc1ccccc1)Nc1ccc(Cl)cc1`, the EC50 in test [1] is > 53 µM (inactive). The IC50 in [2] was > 47.1 µM (inactive).
With `COc1ccccc1CNC(=O)c1ccc2[nH]c3nc4ccccc4c-3nc2c1`, the CC50 in test [5] is > 50 µM (active).
Regarding `N#CCc1c(C#N)c(N)nc(N2CCCC2)c1C#N`, in [5], the CC50 was 19.6 µM (active).
As for `CCCCCCSc1cc(-c2nc3ccc(C)cn3c2NCc2ccccc2)ccc1OC`, in the test with INS1, the concentration at half-maximal activity (AC50) was 6.87 µM (active).
As for `CCCC(=O)Nc1nc(C)c(-c2csc(Nc3ccc(Cl)cc3)n2)s1`, the CC50 in test [5] is 7.41 µM (active).
Turning to `CN(CCO)S(=O)(=O)c1ccc2c(c1)C(=NNC(N)=O)c1cc(S(=O)(=O)N(C)CCO)ccc1-2`, in test [1], the EC50 is > 53 µM (inactive). In addition, the IC50 in test [2] is > 47.1 µM (inactive).
As to `C[C@@H]1CN([C@H](C)CO)C(=O)c2cc(NC(=O)Nc3ccc(C(F)(F)F)cc3)ccc2O[C@H]1CN(C)S(=O)(=O)c1cccs1`, the AC50 with INS1 was 27 µM (active).
With `COc1ccc(-c2noc(CCCC(=O)NC3CCCC3)n2)cc1`, the EC50 is 13.3 µM (active) in [6], 11 µM (active) in test [7] and 14.1 µM (active) in [8].
In the case of `CCOC(=O)c1ccc(NC(=O)c2cc3c(C)nn(-c4ccccc4Cl)c3s2)s1`, the EC50 is > 120 µM (not active) in [6], 15.3 µM (active) in test [7] and > 120 µM (not active) in test [8].
`CCOc1ccc2c3c(c(=O)oc2c1OCC)CCCC3`: in test [5], the CC50 was 44 µM (active).
Consider `CCc1ccccc1N1C(=O)C2CC(C)=C(C)CC2C1=O` (stereo unspecified), for which the EC50 in test [1] is > 53 µM (inactive). Also, the IC50 in test [2] is > 47.1 µM (inactive).
Take `O=C(c1ccccc1)c1nc2ccccc2n(CCCn2c(=O)c(C(=O)c3ccccc3)nc3ccccc32)c1=O`: the EC50 in test [6] was > 120 µM (not active); in [7], 33.3 µM (active); in [8] it was 34.5 µM (active).
Taken in the same sequence, the figures for `CCc1ccccc1Nc1nc2ccccc2n1CC` were 23 µM (active), > 120 µM (not active) and > 120 µM (not active).
Turning to `CCC(C)(C)c1ccc(Oc2ccc(NC(=O)COC(=O)C3=COCCO3)cc2)cc1`, the EC50 in test [6] was 8.92 µM (active); in test [7], 6.08 µM (active); in test [8] it was 10.1 µM (active).
For `O=C1N[C@@H](Cc2ccccc2)C(=O)N2[C@@H]3N(S(=O)(=O)c4ccc(F)cc4)c4ccccc4[C@]3(Br)C[C@@H]12`, the CC50 in [5] is > 50 µM (active).
As for `Cc1ccc(C)c(C(=O)OCC(=O)Nc2cccc(S(=O)(=O)NC3=NCCCCC3)c2)c1`, the CC50 in test [5] was 20.6 µM (active).
`Cc1ccc2c(c1)c(-c1ccccc1)nc1nnnn12`: the EC50 in [6] is 120 µM (active); in [7], 17.5 µM (active); in test [8] it was > 120 µM (not active).
As for `O=C(c1ccco1)N1N=C(c2ccc(Br)cc2)CC1c1ccco1` (stereo unspecified), the AC50 with INS1 was 19.8 µM (active).
As to `CCOc1ccccc1CNC(=O)c1nn(C)c2c1CS(=O)(=O)c1ccccc1-2`, the EC50 in test [6], in [7] and in [8] was > 120 µM (not active) each time.
In the case of `Cc1nn(Cc2ccc(F)cc2)c(C)c1NC(=O)c1cc(-c2ccc3c(c2)OCO3)on1`, the values for the EC50 in test [6], in [7] and in test [8] were > 120 µM (not active), 15.7 µM (active) and > 120 µM (not active), respectively.
In the case of `CCC1(C)Cc2c(sc3nc(SC)nc(N)c23)CO1` (stereo unspecified), in [5], the CC50 was 31 µM (active).
On to `COc1cc(OC)c2c3c(c(C4CCCCC4)nc2c1)CCC3`, for which the CC50 in test [5] is 30.1 µM (active).
With `COc1ccc(C2C(C#N)=C(N)Oc3cc4c(cc32)OCO4)cc1` (stereo unspecified), the results for the EC50 in test [6], in [7] and in test [8] were 10.9 µM (active), > 120 µM (not active) and 74 µM (active), respectively.
For `COc1cccc(OC)c1CC1SC(=O)NC1=O` (stereo unspecified), in test [5], the CC50 was 40.2 µM (active).
For the compound `CCOC(=O)C1CCN(C(=O)CCc2c(C)nc3cc(-c4ccccc4)nn3c2C)CC1`, the EC50 in [7] was 18.2 µM (active); in test [8], 27.1 µM (active).
As for `COc1cccc(C(=O)N2CCCC(CCC(=O)NCc3ccc(F)c(F)c3)C2)c1` (stereo unspecified), the EC50 in [1] is > 53 µM (inactive). In addition, in test [2], the IC50 was > 47.1 µM (inactive).
In the case of `Cc1ccc(C)c2sc(N3CCN(C(=O)c4ccc([N+](=O)[O-])o4)CC3)nc12`, the EC50 in the test with Streptococcus was 9.98 µM (active); at Streptokinase A, 2.59 µM (active); in [9], 2.67 µM (active). The CC50 in test [5] was 16.9 µM (active).
For `Cc1nc(N)sc1-c1csc(Nc2ccc(Cl)cn2)n1`, in [5], the half-maximal cytotoxic concentration (CC50) is 7.95 µM (active).
As for `Cc1cc(C)c2c(C)n[nH]c2n1`, the AC50 in the test on INS1 is > 260 µM (inactive).
For `COc1ccc(CCNC(=O)c2ccc3c(c2)N(Cc2ccc(F)cc2)CCS3)cc1OC`, the 50% cytotoxic concentration (CC50) in test [5] was 25.7 µM (active).
In the case of `C/C=C/c1ccc(OCC(=O)Nc2ccc(OC)c(OC)c2)c(OC)c1`, in test [10], the EC50 is listed as > 195 µM (not active).
Take `CC1(C)C[C@@H]2C[C@@](C)(CN2C(=O)c2cc(COc3cccc(C(F)(F)F)c3)on2)C1`: the AC50 in [11] is 2.23 µM (active); in the test on INS1, 11.6 µM (active).
On to `COc1cccc(C2[C@H](C)C3(CCN2C)OCCO3)c1` (stereo partly specified), for which the EC50 in [6], in test [7] and in test [8] was > 120 µM (not active) in each case.
Take `C#CCN(C#N)c1nc(NCC)nc(NC(C)C)n1`: the EC50 in test [6] was 16 µM (active); in test [7], 28.9 µM (active); in [8], > 120 µM (not active).

By AC50 is commonly meant the concentration at which the activity in the assay is half-maximal. The CC50 is the concentration giving 50% cytotoxicity.
